Test results published in publication PMC7600679, “Benzoxazole-Based Metal Complexes to Reverse Multidrug Resistance in Bacteria” (Antibiotics, 2020).
Read-outs that look alike come from different tables or passages of the source.

Experiments:
[1] = system: Staphylococcus aureus ATCC 25923; assay: Minimum inhibitory concentration (broth microdilution, CLSI); assay type: cell-based; conditions: S. aureus ATCC 25923; 18 h, visual inspection
Description: (§1) The compounds were further investigated against two Gram-positive strains, S. aureus ATCC 25923 (MSSA), used as the methicillin susceptible reference strain, and the methicillin- and ofloxacin-resistant S. aureus 272123 clinical isolate (MRSA), which was given by Prof. Dr. Leonard Amaral (Institute of Hygiene and Tropical Medicine, Lisbon, Portugal).
(§2) The minimum inhibitory concentrations (MICs) of compounds were determined in 96-well plates based on the Clinical and Laboratory Standard Institute guidelines (CLSI guidelines). The compounds were diluted in 100 μL of MHB. Then, 10^−4 dilution of an overnight bacterial culture in 100 μL of medium were added to each well, with the exception of the medium control wells.

[2] = system: S. aureus 272123 (MRSA); assay: as above; assay type: cell-based, Staphylococcus aureus; conditions: 18 h, visual inspection
Description: as §1, §2

[3] = system: E. coli AG100; assay: as above; assay type: cell-based, Escherichia coli; conditions: E. coli AG100; 18 h, visual inspection; read-out: MIC
Description: The strains were donated by Prof. Dr. Hiroshi Nikaido (Department of Molecular and Cell Biology and Chemistry, University of California, Berkeley, CA, USA).
as §2

[4] = system: E. coli AG100 A; assay: as above; assay type: cell-based, Escherichia coli; conditions: E. coli AG100 A (AcrAB-TolC deleted); 18 h, visual inspection
Description: Wild-type E. coli K-12 AG100 strain (argE3 thi-1 rpsL xyl mtl Δ(gal-uvrB) supE44) expressing the AcrAB TolC EP at its basal level and its AcrAB-TolC deleted mutant E. coli K-12 AG100 A strain. The strains were donated by Prof. Dr. Hiroshi Nikaido (Department of Molecular and Cell Biology and Chemistry, University of California, Berkeley, CA, USA).
as §2

[5] = system: Chromobacterium violaceum 026; assay: as above; assay type: cell-based; conditions: C. violaceum 026
Description: (§3) The following bacterial strains were applied in the QS tests: C. violaceum 026 as sensor strain and E. cloacae 31298 isolated from clinical wound (used as N-acyl-homoserine lactone (AHL) producer); this strain induced pigment production by C. violaceum and is a model strain to study QS interactions.
as §2

[6] = system: Enterobacter cloacae 31298; assay: as above; assay type: cell-based; conditions: E. cloacae 31298
Description: as §3, §2

[7] = system: S. aureus 272123 (MRSA); assay: Real-time ethidium bromide accumulation (efflux pump inhibition); assay type: cell-based, Staphylococcus aureus; conditions: compounds at ¼ MIC (3 at 12.5 µM), VER at 25 µM, EB 1 μg/mL, minute 30
Description: (§4) Since multidrug resistance EPs are very important factors contributing to multidrug resistance (MDR) in both Gram-positive and Gram-negative bacteria, the inhibition of these pumps could reverse the resistant phenotype and restore the activity of antibiotics. The effect of compounds on ethidium bromide (EB) accumulation was determined by the automated EB method. This assay was used to determine how much of the fluorescent dye and pump substrate EB was accumulated by the bacterial cells in the presence of the tested compounds. The real-time accumulation of EB was monitored for 30 min in both S. aureus and E. coli strains.
(§5) The accumulation of the efflux pump substrate EB was monitored by the automated EB method using a LightCycler real-time thermocycler (LightCycler 1.5, Roche, Indianapolis, IN, USA). An aliquot of an overnight culture of the S. aureus strains in TSB medium was inoculated into fresh TSB medium, and it was incubated until it reached an optical density (OD) of 0.6 at 600 nm. In the case of E. coli strains, the medium applied in the assay was LB broth; the preparation of the inoculum was similar to the one of S. aureus. The cells were washed with phosphate buffered saline (PBS; pH 7.4) and centrifuged at 13,000 × g for 3 min, the pellets were re-suspended in PBS (pH 7.4), and the OD was calibrated to 0.6 at 600 nm. The compounds were measured at ¼ MIC concentration (in double-concentrated form) to the EB solution in PBS. The final concentration of EB was determined according to the MIC and the fluorescent signal produced by this amount of EB. In the case of all strains, the concentration of EB was 1 μg/mL. Then, 10 μL of the EB solution plus the compound were pipetted into standard glass capillary tubes of 20 µL maximum volume (Roche, Indianapolis, USA), and 10 μL of bacterial culture (OD of 0.6 at 600 nm) were transferred to the capillaries. The capillaries containing the samples were placed into the carousel, and the fluorescence was monitored at the FL-2 channel in every minute on a real-time basis.
(§6) Based on the data obtained, the relative fluorescence index (RFI) of the last time point (minute 30) was determined as follows:RFI = (RFtreated − RFuntreated)/RFuntreated(1) where RFtreated is the relative fluorescence (RF) at the last time point of the EB retention curve in the presence of an inhibitor, and RFuntreated is the relative fluorescence at the last time point of the EB retention curve of the untreated control having the solvent control (DMSO).

[8] = system: S. aureus ATCC 25923; assay: as above; assay type: cell-based, Staphylococcus aureus; conditions: compounds at ¼ MIC, EB 1 μg/mL, minute 30
Description: as §4, §5, §6

[9] = system: E. coli AG100; assay: Real-time ethidium bromide accumulation (efflux pump inhibition, AcrAB-TolC); assay type: cell-based, Escherichia coli; conditions: compounds at ¼ MIC, EB 1 μg/mL, minute 30
Description: as §4, §5, §6

[10] = system: E. coli AG100 A; assay: Real-time ethidium bromide accumulation (efflux pump inhibition); assay type: cell-based, Escherichia coli; conditions: compounds at ¼ MIC, EB 1 μg/mL, minute 30
Description: as §4, §5, §6

[11] = system: C. violaceum 026 sensor strain with AHL producer E. cloacae 31298; assay: Quorum sensing inhibition (agar diffusion, violacein production); assay type: cell-based, Chromobacterium violaceum; conditions: disc with 10 μL of 1 mM stock; reduction of violacein zone
Description: as §3
LB* was applied for these experiments. The sensor strain C. violaceum 026 and the AHL producer strains E. cloacae 31298 were inoculated as parallel lines and incubated at room temperature for 24–48 h. The inhibition of bacterial communication was determined by the agar diffusion method. Filter paper discs (7.0 mm in diameter) were impregnated with 10 μL of stock solutions (1 mM) of the compounds in DMSO. The discs were placed between the parallel lines of the sensor and the AHL producer strains. The plates were kept at room temperature for another 24–48 h, and the interactions between the strains and compounds were determined as the reduction in the size of the zone of purple pigment (violacein) production in millimeters. PMZ was applied as a positive control.

[12] = system: MRC-5 human embryonal lung fibroblast cell line; assay: Cytotoxicity assay (MTT); assay type: cell-based; conditions: 24 h
Description: The MRC-5 human embryonic lung fibroblast cell line (ATCC CCL-171; provider: LGC Promochem, Teddington, UK) was used in the experiments. The cells were cultivated in Eagle’s Minimal Essential Medium (EMEM; Sigma–Aldrich, St. Louis, MO, USA), supplemented with 1% non-essential amino acid mixture, 10% heat-inactivated fetal bovine serum, 2 mM L-glutamine, 1 mM Na-pyruvate, nystatin, and a penicillin–streptomycin mixture in concentrations of 100 U/L and 10 mg/L, respectively. The supplementary components were obtained from Sigma–Aldrich, St. Louis, MO, USA. The cell culture was kept in a humidified atmosphere (5% CO2, 95% air) at 37 °C.
The activity of increasing concentrations of the compounds on cell growth was determined in 96-well flat-bottomed microtiter plates by two-fold serial dilutions of the benzoxazole derivatives. The adherent human embryonic lung fibroblast cells (10^4/well) was seeded in EMEM medium in 96-well microtiter plates for 4 h prior to the assay. The serial dilutions of the compounds were made in a separate plate, and then pipetted to the plates containing the MRC-5 cell line. Culture plates were incubated at 37 °C for 24 h; at the end of the incubation period, 20 μL of MTT (3-(4,5-dimethylthiazol-2-yl)-2,5-diphenyltetrazolium bromide) solution (from a 5 mg/mL stock solution) was measured to each well. After the incubation at 37 °C for 4 h, 100 μL of sodium dodecyl sulfate (SDS) solution (10% SDS in 0.01 M HCl) was added to each well to dissolve the formazan crystals and the samples were further incubated at 37 °C overnight. Cell growth was calculated by measuring the OD at 540 nm (ref. 630 nm) with a Multiscan EX ELISA reader. The cytotoxicity was expressed as IC50 values, defined as the inhibitory dose that reduces the growth of the cells exposed to the tested compounds by 50%.

[13] = system: S. aureus MRSA 272123; assay: Resistance modulation (MIC reduction) assay with CIP and TET; assay type: cell-based, Staphylococcus aureus
Description: (§7) The resistance modulation effects of compounds with ciprofloxacin (CIP) and tetracycline (TET) antibiotics were evaluated by the MIC reduction method on the Gram-negative E. coli AG100, AG100 A, and the Gram-positive S. aureus ATCC and MRSA strains.
(§8) The chemosensitizing activity of benzoxazole-type ligands and their metal complexes was determined based on the MIC values of the antibiotics in the presence of sub-inhibitory concentrations of the compounds (¼ MIC) in both Gram-negative and Gram-positive strains. The MICs were determined in strains by the two-fold broth microdilution method in 96-well plates, using serial dilutions of TET and CIP. The first four rows contained two-fold dilutions of antibiotics, and combinations of the TET and CIP and tested compounds were transferred into the last four rows. The 10^−4 dilution of an overnight bacterial culture in 50 μL of MHB was then measured to each well, except for the medium control wells. The plates were kept at 37 °C for 18 h. MIC values of antibiotics and their combination with tested compounds were detected by visual inspection.

[14] = system: E. coli AG100; assay: as above; assay type: cell-based, Escherichia coli; conditions: compound at ¼ MIC
Description: as §7, §8

[15] = system: MRC-5 human embryonal lung fibroblast cell line; design: method as in earlier work; conditions: cited from earlier work
[16] = system: MDR mouse T-cell lymphoma cells; design: method as in PMID 30396935; conditions: preliminary results; cited from earlier work

Structure (SMILES): [O-]C(=Cc1nc2ccccc2o1)C(F)(F)F.[O-]C(=Cc1nc2ccccc2o1)C(F)(F)F.[Zn+2] [Compound 4]
- MIC [1]: 12.5 µM
- MIC [2]: 6.25 µM
- MIC [3]: 25 µM
- MIC [4]: 25 µM
- MIC [5]: >100 µM
- MIC [6]: >100 µM
- Relative fluorescence index (RFI) [7]: −0.11
- Relative fluorescence index (RFI) [8]: −0.03
- Relative fluorescence index (RFI) [9]: −0.10
- Relative fluorescence index (RFI) [10]: −0.17
- Inhibition zone (quorum sensing) [11]: 47 mm
- Cytotoxic effect (class in words) [12]: strong (IC50: 0–30)
- IC50 [12]: 17.5 µM

Structure (SMILES): O.O.[Ni+2].[O-]C(=Cc1nc2ccccc2o1)C(F)(F)F.[O-]C(=Cc1nc2ccccc2o1)C(F)(F)F [Compound 8]
- MIC [1]: 25 µM
- MIC [2]: 6.25 µM
- MIC [3]: 50 µM
- MIC [4]: 25 µM
- MIC [5]: >100 µM
- MIC [6]: >100 µM
- Reduction of the MIC value of CIP ([13]; compound at a quarter of the MIC): 2 fold
- CIP MIC in combination with compounds ([13]; compound at ¼ MIC, value is the MIC of ciprofloxacin): 6.25 µM
- Reduction of the MIC of CIP [14]: 2 fold
- CIP MIC in combination with compounds ([14]; value is the MIC of ciprofloxacin): 8 nM
- Relative fluorescence index (RFI) [7]: −0.01
- Relative fluorescence index (RFI) [8]: −0.20
- Relative fluorescence index (RFI) [9]: 0.11
- Relative fluorescence index (RFI) [10]: −0.15
- Cytotoxic effect (class in words) [12]: strong (IC50: 0–30)
- IC50 [12]: 12.2 µM

Structure (SMILES): [Ag+].[Ag+].[O-]C(=Cc1nc2ccccc2o1)C(F)(F)F.[O-]C(=Cc1nc2ccccc2o1)C(F)(F)F [Compound 11]
- MIC [1]: 25 µM
- MIC [2]: 12.5 µM
- MIC [3]: 25 µM
- MIC [4]: 50 µM
- MIC [5]: >100 µM
- MIC [6]: >100 µM
- Relative fluorescence index (RFI) [7]: −0.11
- Relative fluorescence index (RFI) [8]: 0.11
- Relative fluorescence index (RFI) [9]: 0.37
- Relative fluorescence index (RFI) [10]: 0.12
- Inhibition zone (quorum sensing) [11]: 53 mm
- IC50 [12]: 65.9 µM

Structure (SMILES): CC(CN1c2ccccc2Sc2ccccc21)N(C)C (centres unmarked) [PMZ, promethazine, reference compound]
- Inhibition zone (quorum sensing) [11]: 16 mm

Structure (SMILES): N.N.[Cl][Pt][Cl] [cisplatin]
- IC50 [15]: 33.5 µM
- IC50 [16]: 11.2 µM
